We go through three compounds from article PMC10136296, “Biological Screening and Crystallographic Studies of Hydroxy γ-Lactone Derivatives to Investigate PPARγ Phosphorylation Inhibition” (Biomolecules, 2023).

Series [1] has as its system PPARγ Ser245 phosphorylation by CDK5/p35. As to the kind of experiment: In vitro kinase assay: CDK5-mediated phosphorylation of PPARγ-LBD (Pro-Q Diamond stain). To be noted: 10 µM ligand, 30 min at 30 °C. Format: biochemical. As for the experimental part:
The assay was performed on PPARγ-LBD, in the apo-form and in the complex with ligands 1–3. For the kinase assay, stock solutions of ligands were prepared by diluting with 100% DMSO to a concentration of 500 μM. The stock solutions were further diluted with 50 mM Tris-HCl, pH 7.5, up to the final concentration of 10 μM and pre-equilibrated overnight at 4 °C with the protein.
The kinase assay was carried out for 30 min at 30 °C in 50 μL of the assay buffer containing 50 mM Tris-HCl, pH 7.5, 800 ng of PPARγ-LBD, 10 μM ligand, 1% DMSO, 2.5 mM MgCl2, 50 μM DTT, 500 μM ATP, 40 ng of CDK5/p35 (Sigma-Aldrich code no. SRP5011; Merck KGaA). The experiment was performed in triplicate.
Pro-Q™ Diamond phosphoprotein gel stain (ThermoFisher, Waltham, MA, USA) provides a convenient method for selectively staining phosphoproteins in acrylamide gels, without the need for blotting or the use of phosphoprotein-specific antibodies. After performing electrophoresis, the gel was stained with Pro-Q™ Diamond and analyzed using a Chemidoc Imaging System (Bio-Rad). A further step of gel staining with SYPRO™ Ruby total-protein gel stain (ThermoFisher) was performed. Determining the ratio of the signal intensities of Pro-Q™ Diamond dye to SYPRO™ Ruby dye for each band provides a measure of the phosphorylation level normalized to the total amount of protein. More detailed information on the protocol used in this experiment can be obtained on the ThermoFisher website.
Finally, to assess the ability of 1–3 to inhibit the CDK5-mediated phosphorylation of PPARγ in vitro, a kinase assay was set up and optimized to measure the inhibition rate, as described in the experimental section. The phosphoproteins were detected and quantified by using the Pro-Q™ Diamond phosphoprotein gel stain method.

Series [2] concerns the target T1, human PPARγ subtype (hPPARγ), Gal4-PPARγ-LBD (Homo sapiens, UniProt P37231).
T1 construct: expressed in transfected cells; host or cells: HepG2
T1 sequence (P37231 238-503 limits assumed): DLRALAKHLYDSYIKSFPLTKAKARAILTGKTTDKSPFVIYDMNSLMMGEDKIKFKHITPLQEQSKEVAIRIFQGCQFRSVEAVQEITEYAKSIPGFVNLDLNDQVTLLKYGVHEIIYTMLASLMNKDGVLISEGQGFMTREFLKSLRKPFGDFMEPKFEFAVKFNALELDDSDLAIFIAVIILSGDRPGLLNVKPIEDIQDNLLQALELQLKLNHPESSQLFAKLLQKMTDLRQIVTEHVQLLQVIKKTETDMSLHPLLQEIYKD
As to the kind of experiment: GAL4-PPAR transactivation assay, antagonist mode (competition with rosiglitazone). Particulars: HepG2, antagonist mode vs rosiglitazone 1 µM; mean ± SEM; uncertain above 10 µM because of cytotoxicity. Format: cell-based. The text has this:
(§1) Reference compounds, the cell culture medium, and the reagents were purchased from Sigma-Aldrich (Merck KGaA). The expression vectors bearing the chimeric receptor containing the yeast Gal4-DNA binding domain fused to the human PPARγ-LBD, and the reporter plasmid for this Gal4 chimeric receptor (pGal5TKpGL3), comprising five repeats of the Gal4 response elements upstream of a minimal thymidine kinase promoter adjacent to the coding sequence for luciferase, were described in a previous study. A culture of the human hepatoblastoma cell line HepG2 (Interlab Cell Line Collection, Genoa, Italy) was conducted in minimum essential medium (MEM) containing 10% heat-inactivated fetal bovine serum, 100 U of penicillin G mL^−1, and 100 μg mL^−1 of streptomycin sulfate at 37 °C in a humidified atmosphere of 5% CO2. For transactivation assays, cells were seeded in a 24-well plate at a concentration of 10^5 cells per well and were transfected after 24 h by CAPHOS, a calcium phosphate method, according to the manufacturer’s guidelines. Cell transfection was performed using expression plasmids encoding the fusion protein Gal4-PPARγ-LBD (30 ng), pGal5TKpGL3 (100 ng), and pCMVβgal (250 ng). […] Cell extracts were subsequently analyzed for luciferase activity via luminometry (VICTOR^3 V multilabel plate reader; PerkinElmer, Waltham, MA, USA). ortho-Nitrophenyl-β-D-galactopyranoside was used to measure β-galactosidase activity, following a previously described method. […]
(§2) Furthermore, compounds 1–3 were evaluated in vitro for their agonist activity towards the human PPARγ subtype (hPPARγ) by employing the GAL4-PPAR transactivation assay. […] We evaluated the efficacy of 1–3 on PPARγ at increasing concentrations up to 100 μM. […] The compounds were also analyzed in antagonist mode by conducting a competitive binding assay, in which PPARγ activity was measured at a fixed concentration of the reference agonist rosiglitazone (1 µM) in cells treated with increasing concentrations of 1–3. […]

Series [3] addresses T1, human PPARγ subtype (hPPARγ), Gal4-PPARγ-LBD. As to the kind of experiment: GAL4-PPAR transactivation assay, agonist mode. Particulars: HepG2, up to 100 µM; rosiglitazone maximum = 100%. Format: cell-based.
Excerpt: as §1, §2

Series [4] has as its target T2, CDK5/p35 (Homo sapiens, UniProt Q00535).
T2 construct: purchased Sigma-Aldrich (Merck KGaA) SRP5011
As to the kind of experiment: CDK5 inhibition test with histone H2A/H2B as substrate. The class given is biochemical. Particulars: 5 µM ligand, H2a/H2b as phosphorylation target. As for the experimental part: The degree of CDK5 inhibition in the presence of compounds 1, 2, and 3 was evaluated with the same protocol described above for the in vitro kinase assay. In detail, the test was carried out for 30 min at 30 °C in 50 μL of the assay buffer containing 50 mM Tris-HCl, pH 7.5, 800 ng H2A/H2B, 5 μM ligand (for the calculation of the ligand concentration, the excess amount of compounds 1, 2, and 3 possibly not bound to PPARγ was overestimated), 1% DMSO, 2.5 mM MgCl2, 50 μM DTT, 500 μM ATP, 40 ng of CDK5/p35 (Sigma-Aldrich code no. SRP5011; Merck KGaA). The Pro-Q™ Diamond Phosphoprotein Gel Stain method and a Chemidoc Imaging System (Bio-Rad) were used for measuring the phosphorylation level. The experiment was performed in triplicate and the statistical significance was estimated as above.
Furthermore, these molecules were also screened as potential inhibitors of CDK5 itself, considering their structural similarity to BLI (Figure 2), which was reported in the literature as both a PPARγ partial agonist and a CDK5 inhibitor [10]. A kinase activity test was performed in the presence of compounds 1, 2, and 3, using histone H2a/H2b as a phosphorylation target.

In series [5] the target is T3, PPARγ-LBD (Homo sapiens, UniProt P37231).
T3 construct: PPARγ-LBD (NP_001120802; aa 207−474) was expressed as an N-terminal His-tagged protein; His-tag (N, cleaved yes); made in house; host or cells: E. coli BL21(DE3), pET-28a(+)
T3 sequence (P37231 207-474 isoform P37231-2 limits assumed): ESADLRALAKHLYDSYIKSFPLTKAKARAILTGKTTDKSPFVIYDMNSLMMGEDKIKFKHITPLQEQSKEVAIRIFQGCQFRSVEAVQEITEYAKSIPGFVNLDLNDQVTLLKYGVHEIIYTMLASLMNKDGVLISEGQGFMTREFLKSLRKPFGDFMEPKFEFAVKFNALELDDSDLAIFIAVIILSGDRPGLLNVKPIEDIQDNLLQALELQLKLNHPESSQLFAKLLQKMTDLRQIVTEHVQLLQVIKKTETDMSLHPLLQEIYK
As to the kind of experiment: SPR full kinetic analysis on immobilized PPARγ-LBD. The class given is binding. To be noted: for Kd: SPR full kinetic analysis, KD = Koff/Kon; for koff / kon: SPR, 25 °C, 5 μM to 312 nM, 1:1 model. The procedure:
SPR experiments were performed at 25 °C using a Pioneer AE optical biosensor (Sartorius, Varedo, Italy) equipped with a PCH sensor chip (linear polycarboxylate hydrogel layer) and equilibrated with running buffer 10 mM Hepes, pH 7.4, 150 mM NaCl, 0.005% Tween-20, 1% DMSO. The PCH sensor chip was installed and conditioned in accordance with the manufacturer’s instructions. PPARγ-LBD was immobilized on the surface using amine coupling chemistry. Briefly, flow cells were activated for 5 min by injecting 125 μL of 1:1 ratio of 100 mM N-hydroxysuccinimide (NHS)/400 mM N-ethyl-N’-(3-(dimethylamino)propyl)carbodiimide (EDC). The protein solution (150 μg mL^−1 in 10 mM Na Acetate, pH 4.5) was then injected at 10 μL min^−1, followed by a 70 μL injection of 1 M ethanolamine (pH 8.0) to block any remaining activated groups on the surface. Approximately 11,770 and 10,800 RUs of protein were immobilized on Channel 1 and Channel 3 of the sensor chip, respectively, whereas Channel 2 was used as a reference for non-specific binding. […] The analytes were dialyzed in the running buffer (1% final DMSO concentration) and primary screened using OneStep® injection technology, which allows the compounds to diffuse into a moving stream of buffer to generate a concentration gradient (from 0 up to 10 μM) during a single injection at a flow rate of 50 μL min^−1 [40]. For each analyte injection, a long dissociation (600 s) was allowed, and regeneration of the sensing surface was not used. Next, the full kinetic analysis of the selected compounds was performed at different serial concentrations (from 5 μM to 312 nM) for 120 s at a constant flow rate of 50 μL min^−1. For each analyte injection, a dissociation of 180 s was allowed, followed by a short mild regeneration step with 1 M NaCl. All sensorgrams were processed using double referencing. First, responses from the reference surface (Channel 2) were subtracted from the binding responses collected over the reaction surfaces to correct for bulk refractive index changes between the flow buffer and analyte sample. Second, the response from the closest blank injection (zero analyte concentration) was subtracted to compensate for drift and small differences between the activated channel and the reference flow cell Channel 2. As an internal control for the gradient dispersion process, an injection of 3% sucrose dissolved in the assay buffer was performed for all the injections to ensure proper gradient formation and to calibrate for buffer viscosity. To obtain kinetic rate constants and affinity constants, the corrected response data were fitted in QDAT software provided with the instrument (BioLogic Software, Canberra, Australia). A kinetic analysis of the ligand/analyte interaction was obtained by fitting the response data to a reversible 1:1 bimolecular interaction model. The equilibrium dissociation constant (KD) was determined by the ratio Koff/Kon. This experiment was performed in duplicate.
The OneStep® injection technology was used for the screening of our compound collection. This method has been successfully employed in our previous work to test a series of natural products, extracted from medicinal plants. Its efficiency and reliability as a screening technique were confirmed by the rapid identification of promising compounds. This approach is based on the well-established concept of Taylor dispersion injection, which allows the compound to diffuse into a moving stream of buffer, producing a gradient throughout the injections. In this way, a wide range of analyte concentrations can be readily tested. In this assay, all the ligands from the DMSO stock solutions were dialyzed into the running buffer at 10 μM (1% final DMSO concentration) and gradient-injected for 120 s over the sensor chip surface. […]

For series [6], the system named is HepG2. As to the kind of experiment: Cytotoxicity seen by microscopy in the transactivation assay. The class given is cell-based, human. Particulars: HepG2, at 25 and 100 µM, visually examined, data not shown. The procedure:
Furthermore, compounds 1–3 were evaluated in vitro for their agonist activity towards the human PPARγ subtype (hPPARγ) by employing the GAL4-PPAR transactivation assay. The results were compared to the corresponding data for rosiglitazone, used as a reference in the test. The maximum fold induction obtained with the reference agonist was defined as 100%. We evaluated the efficacy of 1–3 on PPARγ at increasing concentrations up to 100 μM. […] The compounds were also analyzed in antagonist mode by conducting a competitive binding assay, in which PPARγ activity was measured at a fixed concentration of the reference agonist rosiglitazone (1 µM) in cells treated with increasing concentrations of 1–3. The inhibition curves, from which the IC50 values were extrapolated as mean ± SEM of three duplicate experiments, are reported in Figure 4A. […] Consequently, the IC50 values could not be estimated with a certainty above 10 µM, which was the threshold at which the cytotoxicity was null or negligible. From the inhibition curves (Figure 4A), we hypothesized the absence of antagonism: the activity remained unchanged up to 10 µM and then decreased at 25 µM and 100 µM. However, at these concentrations, the signal reduction could not be unequivocally attributed to PPARγ antagonism, due to the cytotoxic effects of the compounds at higher doses.

T2 sequence (Q00535 whole entry): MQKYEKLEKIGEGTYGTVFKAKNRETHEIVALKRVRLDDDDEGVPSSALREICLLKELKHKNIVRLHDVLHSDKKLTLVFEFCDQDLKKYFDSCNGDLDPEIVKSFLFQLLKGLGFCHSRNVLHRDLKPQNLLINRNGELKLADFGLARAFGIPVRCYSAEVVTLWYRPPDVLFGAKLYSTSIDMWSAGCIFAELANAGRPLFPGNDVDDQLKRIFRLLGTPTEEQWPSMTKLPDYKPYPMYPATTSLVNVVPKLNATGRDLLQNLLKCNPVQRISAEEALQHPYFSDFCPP
T2 sequence (Q15078 whole entry partner): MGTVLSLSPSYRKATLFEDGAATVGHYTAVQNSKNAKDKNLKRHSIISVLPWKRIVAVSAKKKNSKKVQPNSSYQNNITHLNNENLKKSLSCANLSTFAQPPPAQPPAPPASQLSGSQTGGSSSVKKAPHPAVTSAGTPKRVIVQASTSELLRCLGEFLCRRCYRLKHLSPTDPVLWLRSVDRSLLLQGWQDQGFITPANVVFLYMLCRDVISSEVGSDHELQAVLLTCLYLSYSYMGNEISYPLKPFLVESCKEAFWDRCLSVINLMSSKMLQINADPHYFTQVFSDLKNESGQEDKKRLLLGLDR

In the case of `O=C1OC(c2cccc(O)c2)C(c2ccc(Br)cc2)=C1O` (stereo not drawn) [Compound 1, 4-(4-Bromophenyl)-3-hydroxy-5-(3-hydroxyphenyl)furan-2(5H)-one], the melting point – broadly, the temperature, or range, at which the solid turns liquid – is 194 to 195 °C (dec.). Also, the “inhibition of Ser245 phosphorylation” value in series [1] was approximately 40%. Moreover, the IC50 (as a rule, the concentration that gives 50% inhibition) in series [2] worked out at 39.9 ± 1.2 µM. In series [3], the “agonist activity in the PPARγ transactivation assay” value (“agonist activity” for short) was “PPARγ non-agonists”. Besides, the CDK5 inhibition result in series [4] was “very low inhibition effect”. Further, in series [5], the dissociation constant (Kd) (commonly the equilibrium constant for the complex coming apart) was found to be 3.75 ± 0.06 µM; the dissociation rate constant (koff) (in general, the first-order rate constant of dissociation) stood at 0.0679 ± 0.0004 s⁻¹; the kon (usually a measure of how fast the partners come together) came to 18100 ± 3e+06 M⁻¹ s⁻¹.

`O=C1OC(c2cccc(O)c2)C(C(=O)c2ccccc2)=C1O` (stereo not drawn) [Compound 2, 4-Benzoyl-3-hydroxy-5-(3-hydroxyphenyl)furan-2(5H)-one]: the “inhibition of Ser245 phosphorylation” value in series [1] is approximately 40%. In addition, the IC50 in series [2] came out at 35.1 ± 2.8 µM. In addition, in series [3], the “agonist activity” value is listed as “PPARγ non-agonists”. In addition, the CDK5 inhibition entry in series [4] is recorded as “more significant inhibitory activity”. Moreover, in series [5], the Kd is 1.93 ± 0.02 µM, the koff is 0.02241 ± 9e-05 s⁻¹ and the association rate constant (kon) was 11700 ± 1e+06 M⁻¹ s⁻¹.

`O=C1OC(c2ccc(OCc3cccc4ccccc34)cc2)C(c2ccccc2)=C1O` (stereo not drawn) [Compound 3, 3-Hydroxy-5-(4-(naphthalen-1-ylmethoxy)phenyl)-4-phenylfuran-2(5H)-one] came in with a melting point of 204 °C. Further, the “inhibition of Ser245 phosphorylation” value in series [1] was approximately 40%. For the same compound, the half-inhibitory concentration (IC50) in series [2] is 16.2 ± 2.5 µM. For the same compound, in series [6], the cytotoxicity result is listed as “a certain cytotoxicity”. Further, the “agonist activity” value in series [3] was “PPARγ non-agonists”. For the same compound, the CDK5 inhibition result in series [4] is recorded as “more significant inhibitory activity”. Also, in series [5], the affinity, expressed as Kd, was 1.67 ± 0.02 µM; the koff came to 0.0362 ± 0.0001 s⁻¹; the on-rate constant (kon) was 21700 ± 2e+06 M⁻¹ s⁻¹.
